The target in this experiment is T1, Recombinant human HDAC6 (Homo sapiens, UniProt Q9UBN7).
T1 construct: full-length, MW=180 kDa; GST tag (N); made in house; host or cells: Sf9 insect cells (baculovirus)
T1 sequence (Q9UBN7 1-1215): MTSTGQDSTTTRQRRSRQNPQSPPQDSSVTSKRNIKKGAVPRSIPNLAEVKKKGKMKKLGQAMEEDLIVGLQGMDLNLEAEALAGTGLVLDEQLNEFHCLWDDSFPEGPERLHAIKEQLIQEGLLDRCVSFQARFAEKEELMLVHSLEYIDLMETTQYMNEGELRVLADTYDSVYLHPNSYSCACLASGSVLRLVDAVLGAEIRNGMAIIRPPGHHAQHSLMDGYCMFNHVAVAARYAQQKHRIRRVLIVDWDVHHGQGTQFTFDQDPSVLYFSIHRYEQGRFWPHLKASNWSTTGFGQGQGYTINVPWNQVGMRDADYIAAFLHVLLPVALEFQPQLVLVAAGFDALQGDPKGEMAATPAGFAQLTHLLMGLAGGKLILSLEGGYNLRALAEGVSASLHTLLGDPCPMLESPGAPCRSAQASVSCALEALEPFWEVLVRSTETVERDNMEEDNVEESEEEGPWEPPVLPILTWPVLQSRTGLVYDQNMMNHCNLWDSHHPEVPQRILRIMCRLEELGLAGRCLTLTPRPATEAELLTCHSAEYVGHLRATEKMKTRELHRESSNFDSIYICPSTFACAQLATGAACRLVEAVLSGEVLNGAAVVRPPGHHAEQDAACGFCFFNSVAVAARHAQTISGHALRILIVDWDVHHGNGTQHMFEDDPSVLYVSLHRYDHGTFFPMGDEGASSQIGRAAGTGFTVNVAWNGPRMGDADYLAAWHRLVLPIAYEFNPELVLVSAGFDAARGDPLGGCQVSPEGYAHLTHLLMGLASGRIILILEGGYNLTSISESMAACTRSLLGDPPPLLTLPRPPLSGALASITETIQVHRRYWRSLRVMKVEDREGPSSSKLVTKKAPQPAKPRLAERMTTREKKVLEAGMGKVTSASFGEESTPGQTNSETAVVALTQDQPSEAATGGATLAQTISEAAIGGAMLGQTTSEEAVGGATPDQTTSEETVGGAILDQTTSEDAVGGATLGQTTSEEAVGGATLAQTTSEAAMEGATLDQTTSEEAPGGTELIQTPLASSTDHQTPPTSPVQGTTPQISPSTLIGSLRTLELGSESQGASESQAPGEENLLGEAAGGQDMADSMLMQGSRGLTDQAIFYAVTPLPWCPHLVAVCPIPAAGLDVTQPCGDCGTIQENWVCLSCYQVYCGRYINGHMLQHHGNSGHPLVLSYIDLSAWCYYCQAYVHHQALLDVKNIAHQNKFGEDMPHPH
Nature of the experiment: Biochemical HDAC assay, HDAC6. To be noted: incubation time 10 min. How it is done:
Recombinant human HDAC6 (GenBank Accession No. BC069243), full-length, MW=180 kDa, was expressed by baculovirus in Sf9 insect cells using an N-terminal GST tag.
• I. Compound handling: Testing compounds were dissolved in 100% DMSO to a specific concentration. The serial dilution was conducted by epMotion 5070 in DMSO. • II. HDAC reaction buffer: 50 mM Tris-HCl, pH8.0, 137 mM NaCl, 2.7 mM KCl, and 1 mM MgCl2, Added fresh: 1 mg/ml BSA, 1% DMSO. • III. Substrate: Fluorogenic HDAC General Substrate for HDAC1, 2, 3, 6, 10, 11 ans Sirt1, 2 and 3: Arg-His-Lys-Lys(Ac); HDAC8 only substrate: Arg-His-Lys(Ac)-Lys(Ac); Class2A Substrate (HDAC4, 5, 7 and 9): Acetyl-Lys(trifluoroacetyl)-AMC; Sirt5 substrate: Ac-Lys(succinyl)-AMC. • IV. General Reaction Procedure: (Standard IC50 determination) • a. Delivered 2× enzyme in wells of reaction plate except No Enzyme (No En) control wells. Add buffer in No En wells. • b. Delivered compounds in 100% DMSO into the enzyme mixture by Acoustic technology (Echo550; nanoliter range). Spin down and pre-incubation. • c. Delivered 2× Substrate Mixture (Fluorogenic HDAC Substrate and co-factor (500 μM of Nicotinamide adenine dinucleotide (NAD^+) in all Sirt assay) in all reaction wells to initiate the reaction. Spin and shake. • d. Incubated for 1-2 hr. at 30° C. with seal. • e. Added Developer with Trichostatin A (or TMP269 or NAD^+) to stop the reaction and to generate fluorescent color. • f. Fluorescence was read (excitatory, 360; emission, 460) using the EnVision Multilabel Plate Reader (Perkin Elmer) • g. Endpoint reading was taken for analysis after the development reaches plateau. • V. Data Analysis: The percentages of enzyme activity (relative to DMSO controls) and IC50 values were calculated using the GraphPad Prism 4 program based on a sigmoidal dose-response equation.
Compounds with indicated doses was tested in the biochemical assays of HDAC1, HDAC2, HDAC3, HDAC4, HDAC5, HDAC6, HDAC7, HDAC8, HDAC9, HDAC10, or HDAC11 enzyme. The incubation time in HDAC1/2 assays are 120 min, and that for other HDACs are 10 min. The curve fit and IC50 values were calculated using the GraphPad Prism 4 program based on a sigmoidal dose-response equation.

Turning to `Nc1ccc(-c2cccs2)cc1NC(=O)c1ccc2c(c1)CCC(=O)N2` [Example 5, N-(2-amino-5-(thiophen-2-yl)phenyl)-2-oxo-1,2,3,4-tetrahydroquinoline-6-carboxamide], the IC50 was more than 10 µM.

One may read the IC50 as the concentration that inhibits the measured activity by half.

Values taken from patent US20190270733A1, “Quinoline and Isoquinoline Based HDAC Inhibitors and Methods of Use Thereof” (Reaction Biology Corp., priority 2018, published 2019).
